{
  "source": "paper PMC7366784",
  "about": "(Medical Science Monitor : International Medical Journal of …, 2020)",
  "key": {"C. trachomatis": {"tested_on": "C. trachomatis", "conditions": "added to the replication phase of developmental cycle; cited from earlier work"}, "recombinant cHtrA": {"tested_on": "recombinant cHtrA", "assay_type": "in vitro ADME, C. trachomatis serovar D", "conditions": "AMP 100 μg/mL, cHtrA 100 μg/mL, 37°C, 30 min; Coomassie blue staining"}, "[1]": {"tested_on": "MT-H143A (recombinant cHtrA mutant)", "assay_type": "in vitro ADME, C. trachomatis serovar D", "conditions": "AMP 100 μg/mL, mutant 100 μg/mL, 37°C, 30 min"}, "[2]": {"tested_on": "MT-S247A (recombinant cHtrA mutant)", "assay_type": "in vitro ADME, C. trachomatis serovar D", "conditions": "AMP 100 μg/mL, mutant 100 μg/mL, 37°C, 30 min"}},
  "data": [
    {"smiles": "CC(C)C(NC(=O)[C@@H]1CCCN1C(=O)[C@@H](NC(=O)OC(C)(C)C)C(C)C)P(=O)(Oc1ccccc1)Oc1ccccc1", "note": "(stereo partly shown) [JO146]", "values": [
      {"measurement": "Effect on C. trachomatis", "setting": "C. trachomatis", "result": "lethal to C. trachomatis"}
    ]},
    {"smiles": "CC[C@H](C)[C@H](NC(=O)[C@H](CCCCN)NC(=O)[C@H](CCC(=O)O)NC(=O)[C@H](CCCCN)NC(=O)[C@H](CO)NC(=O)[C@H](CCCCN)NC(=O)[C@H](CCCNC(=N)N)NC(=O)[C@H](Cc1ccccc1)NC(=O)[C@H](Cc1ccccc1)NC(=O)[C@H](CC(=O)O)NC(=O)CNC(=O)[C@H](CC(C)C)NC(=O)[C@@H](N)CC(C)C)C(=O)NCC(=O)N[C@@H](CCCCN)C(=O)N[C@@H](CCC(=O)O)C(=O)N[C@@H](Cc1ccccc1)C(=O)N[C@@H](CCCCN)C(=O)N[C@@H](CCCNC(=N)N)C(=O)N[C@H](C(=O)N[C@H](C(=O)N[C@@H](CCC(N)=O)C(=O)N[C@@H](CCCNC(=N)N)C(=O)N[C@H](C(=O)N[C@@H](CCCCN)C(=O)N[C@@H](CC(=O)O)C(=O)N[C@@H](Cc1ccccc1)C(=O)N[C@@H](CC(C)C)C(=O)N[C@@H](CCCNC(=N)N)C(=O)N[C@@H](CC(N)=O)C(=O)N[C@@H](CC(C)C)C(=O)N[C@H](C(=O)N1CCC[C@H]1C(=O)N[C@@H](CCCNC(=N)N)C(=O)N[C@H](C(=O)N[C@@H](CCC(=O)O)C(=O)N[C@@H](CO)C(=O)O)[C@@H](C)O)C(C)C)[C@@H](C)CC)C(C)C)[C@@H](C)CC", "note": "[LL-37]", "values": [
      {"measurement": "Degradation of AMP by 100 μg/mL recombinant cHtrA", "setting": "recombinant cHtrA", "result": "degraded all LL-37"},
      {"measurement": "Degradation of AMP by MT-H143A", "setting": "[1]", "result": "unable to degrade LL-37"},
      {"measurement": "Degradation of AMP by MT-S247A", "setting": "[2]", "result": "unable to degrade LL-37"}
    ]}
  ]
}
